This assay has as its target T1, human GHRH receptor (hGHRHR) (Homo sapiens, UniProt Q02643).
T1 construct: expressed in transfected cells; host or cells: Human 293 cells
T1 sequence (Q02643 23-423): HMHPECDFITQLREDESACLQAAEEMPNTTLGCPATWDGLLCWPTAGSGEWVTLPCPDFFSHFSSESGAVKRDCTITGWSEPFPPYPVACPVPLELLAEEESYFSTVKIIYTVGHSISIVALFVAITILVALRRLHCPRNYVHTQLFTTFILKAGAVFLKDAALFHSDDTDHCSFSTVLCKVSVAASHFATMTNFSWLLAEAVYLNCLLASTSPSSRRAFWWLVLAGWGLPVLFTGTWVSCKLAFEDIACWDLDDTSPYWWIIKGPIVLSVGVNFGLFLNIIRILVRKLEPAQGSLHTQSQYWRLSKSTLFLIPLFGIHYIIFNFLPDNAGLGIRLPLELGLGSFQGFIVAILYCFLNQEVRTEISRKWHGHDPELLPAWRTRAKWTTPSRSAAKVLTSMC
The assay can be described thus: GHRHR agonism measured by cAMP (HTRF) in human 293 cells expressing hGHRHR.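 Note: receptor expressed transiently or stably, cells stimulated in serum-free medium, EC50 from a non-linear dose-response fit, maximal response defined by reference GHRH stimulation.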 To be noted: 30 min at RT. The assay is classed as cell-based.

Where a SMILES comes first, the peptide text is derived from it. Bridges are numbered along the chain shown (N, C = ends). [ ]: non-standard residue; d: D form. NMeY = CN[C@@H](Cc1ccc(O)cc1)C(=O)O; R8 = C=CCCCCCC[C@@](C)(N)C(=O)O; S5 = C=CCCC[C@](C)(N)C(=O)O; Nle = CCCC[C@H](N)C(=O)O; Aib = CC(C)(N)C(=O)O

Method: GHRH (1-29) and cross-linked peptidomimetic macrocycles were tested for agonism at the human GHRH receptor (hGHRHR) at various concentrations. Human 293 cells transiently or stably expressing hGHRHR were detached from cell culture flasks with versene (Life Technologies™), suspended in serum-free medium (50 k cells/assay point), and stimulated for 30 min at RT with GHRH (1-29) (Bachem™) or cross-linked peptidomimetic macrocycles. cAMP was quantified using an HTRF®-based assay (CisBio) and used according to the manufacturer's instructions. An EC50 for each agonist was calculated from a non-linear fit of response vs dose (GraphPad™ Prism). The maximum response was determined by stimulating with 10 μM GHRH (1-29). (+=>50 nm; ++=>25-50 nm; +++=>10-25 nm; ++++=>1-10 nm; +++++=≤1 nm).

Take `CCCC[C@H](NC(=O)[C@@H](NC(=O)[C@H](CC(=O)O)NC(=O)[C@H](CCC(N)=O)NC(=O)[C@H](CC(C)C)NC(=O)[C@H](C)NC(=O)[C@H](CCCCN)NC(=O)[C@H](CCCNC(=N)N)NC(=O)[C@H](C)NC(=O)[C@H](CO)NC(=O)[C@H](CC(C)C)NC(=O)[C@]1(C)CCCC=CCCC[C@](C)(NC(=O)[C@H](CCCNC(=N)N)NC(=O)[C@H](Cc2ccc(O)cc2)NC(=O)[C@H](CO)NC(=O)[C@H](C)NC(=O)[C@@H](NC(=O)[C@H](Cc2ccccc2)NC(=O)[C@@H](NC(=O)[C@H](C)NC(=O)[C@H](CC(=O)O)NC(=O)[C@H](C)NC(=O)[C@H](Cc2ccc(O)cc2)NC)[C@@H](C)CC)[C@@H](C)O)C(=O)N[C@@H](C(C)C)C(=O)N[C@@H](CC(C)C)C(=O)N[C@@H](C)C(=O)N1)[C@@H](C)CC)C(=O)N[C@@H](CO)C(=O)N[C@@H](CCCNC(=N)N)C(N)=O` [SP-11] (H-[NMeY]ADAIFTASYR[S5]VLA[S5]LSARKALQDI[Nle]SR-NH2; staple 12-16): the EC50 lay in the range of 10 to 25 nM. The figure for `CCCC[C@H](NC(=O)[C@@H](NC(=O)[C@H](CC(=O)O)NC(=O)[C@H](CCC(N)=O)NC(=O)[C@H](CC(C)C)NC(=O)[C@H](C)NC(=O)[C@H](CCCCN)NC(=O)[C@H](CCCNC(=N)N)NC(=O)[C@H](C)NC(=O)[C@H](CO)NC(=O)[C@H](CC(C)C)NC(=O)[C@H](CCC(N)=O)NC(=O)[C@H](C)NC(=O)[C@H](CC(C)C)NC(=O)[C@@H](NC(=O)[C@H](CCCCN)NC(=O)[C@H](CCCNC(=N)N)NC(=O)[C@H](Cc1ccc(O)cc1)NC(=O)[C@H](CO)NC(=O)C(C)(C)NC(=O)[C@@H](NC(=O)[C@H](Cc1ccccc1)NC(=O)[C@@H](NC(=O)[C@H](C)NC(=O)[C@H](CC(=O)O)NC(=O)[C@H](C)NC(=O)[C@H](Cc1ccc(O)cc1)NC)[C@@H](C)CC)[C@@H](C)O)C(C)C)[C@@H](C)CC)C(=O)N[C@@H](CO)C(=O)N[C@@H](CCCNC(=N)N)C(N)=O` [SP-41] (H-[NMeY]ADAIFT[Aib]SYRKVLAQLSARKALQDI[Nle]SR-NH2) is no more than 1 nM; for `CCCC[C@H](NC(=O)[C@@H](NC(=O)[C@H](CC(=O)O)NC(=O)[C@H](CCC(N)=O)NC(=O)[C@H](CC(C)C)NC(=O)C(C)(C)NC(=O)[C@H](CCCCN)NC(=O)[C@H](CCCNC(=N)N)NC(=O)[C@H](C)NC(=O)[C@H](CO)NC(=O)[C@H](CC(C)C)NC(=O)[C@H](CCC(N)=O)NC(=O)[C@H](C)NC(=O)[C@H](CC(C)C)NC(=O)[C@@H](NC(=O)[C@H](CCCCN)NC(=O)[C@H](CCCNC(=N)N)NC(=O)[C@H](Cc1ccc(O)cc1)NC(=O)[C@H](CO)NC(=O)C(C)(C)NC(=O)[C@@H](NC(=O)[C@H](Cc1ccccc1)NC(=O)[C@@H](NC(=O)[C@H](C)NC(=O)[C@H](CC(=O)O)NC(=O)[C@H](C)NC(=O)[C@H](Cc1ccc(O)cc1)NC)[C@@H](C)CC)[C@@H](C)O)C(C)C)[C@@H](C)CC)C(=O)N[C@@H](CO)C(=O)N[C@@H](CCCNC(=N)N)C(N)=O` [SP-52] (H-[NMeY]ADAIFT[Aib]SYRKVLAQLSARK[Aib]LQDI[Nle]SR-NH2) it is 1 to 10 nM. Turning to `CCCC[C@H](NC(=O)[C@@H](NC(=O)[C@H](CC(=O)O)NC(=O)C(C)(C)NC(=O)[C@H](CC(C)C)NC(=O)[C@H](C)NC(=O)[C@H](CCCCN)NC(=O)[C@H](CCCNC(=N)N)NC(=O)[C@]1(C)CCCC=CCCCCCC[C@@](C)(NC(=O)[C@H](CCCNC(=N)N)NC(=O)[C@H](Cc2ccc(O)cc2)NC(=O)[C@H](CO)NC(=O)C(C)(C)NC(=O)[C@@H](NC(=O)[C@H](Cc2ccccc2)NC(=O)[C@@H](NC(=O)[C@H](C)NC(=O)[C@H](CC(=O)O)NC(=O)[C@H](C)NC(=O)[C@H](Cc2ccc(O)cc2)NC)[C@@H](C)CC)[C@@H](C)O)C(=O)N[C@@H](C(C)C)C(=O)N[C@@H](CC(C)C)C(=O)N[C@@H](C)C(=O)N[C@@H](CCC(N)=O)C(=O)N[C@@H](CC(C)C)C(=O)N[C@@H](CO)C(=O)N1)[C@@H](C)CC)C(=O)N[C@@H](CO)C(=O)N[C@@H](CCCNC(=N)N)C(N)=O` [SP-67] (H-[NMeY]ADAIFT[Aib]SYR[R8]VLAQLS[S5]RKAL[Aib]DI[Nle]SR-NH2; staple 12-19), the EC50 lay in the range of 10 to 25 nM. As for `CCCC[C@H](NC(=O)[C@@H](NC(=O)[C@H](CC(=O)O)NC(=O)[C@H](CCC(N)=O)NC(=O)[C@H](CC(C)C)NC(=O)[C@H](C)NC(=O)[C@H](CCCCN)NC(=O)[C@H](CCCNC(=N)N)NC(=O)[C@]1(C)CCCC=CCCCCCC[C@@](C)(NC(=O)[C@H](CCCNC(=N)N)NC(=O)[C@H](Cc2ccc(O)cc2)NC(=O)[C@H](CO)NC(=O)[C@H](C)NC(=O)[C@@H](NC(=O)[C@H](Cc2ccccc2)NC(=O)[C@@H](NC(=O)[C@H](C)NC(=O)[C@H](CC(=O)O)NC(=O)[C@@H](C)NC(=O)[C@H](Cc2ccc(O)cc2)NC(=O)[C@@H]2CCCN2C(=O)[C@@H]2CCCN2)[C@@H](C)CC)[C@@H](C)O)C(=O)N[C@@H](C(C)C)C(=O)N[C@@H](CC(C)C)C(=O)N[C@@H](C)C(=O)N[C@@H](CCC(N)=O)C(=O)N[C@@H](CC(C)C)C(=O)N[C@@H](CO)C(=O)N1)[C@@H](C)CC)C(=O)N[C@@H](CO)C(=O)N[C@@H](CCCNC(=N)N)C(N)=O` [SP-56] (H-PPY[dA]DAIFTASYR[R8]VLAQLS[S5]RKALQDI[Nle]SR-NH2; staple 14-21), the figure is greater than 50 nM; as for `CCCC[C@H](NC(=O)[C@@H](NC(=O)[C@H](CC(=O)O)NC(=O)[C@H](CCC(N)=O)NC(=O)[C@H](CC(C)C)NC(=O)[C@H](C)NC(=O)[C@H](CCCCN)NC(=O)[C@H](CCCNC(=N)N)NC(=O)[C@H](C)NC(=O)[C@H](CO)NC(=O)[C@H](CC(C)C)NC(=O)[C@H](CCC(N)=O)NC(=O)[C@H](C)NC(=O)[C@H](CC(C)C)NC(=O)[C@@H](NC(=O)[C@H](CCCCN)NC(=O)[C@H](CCCNC(=N)N)NC(=O)[C@H](Cc1ccc(O)cc1)NC(=O)[C@H](CO)NC(=O)[C@H](C)NC(=O)[C@@H](NC(=O)[C@H](Cc1ccccc1)NC(=O)[C@@H](NC(=O)[C@H](C)NC(=O)[C@H](CC(=O)O)NC(=O)[C@H](C)NC(=O)[C@H](Cc1ccc(O)cc1)NC(C)=O)[C@@H](C)CC)[C@@H](C)O)C(C)C)[C@@H](C)CC)C(=O)N[C@@H](CO)C(=O)N[C@@H](CCCNC(=N)N)C(N)=O` [SP-40] (Ac-YADAIFTASYRKVLAQLSARKALQDI[Nle]SR-NH2), 1 to 10 nM; as for `CCCC[C@H](NC(=O)[C@@H](NC(=O)[C@H](CC(=O)O)NC(=O)[C@H](CCC(N)=O)NC(=O)[C@]1(C)CCCC=CCCCCCC[C@@](C)(NC(=O)[C@H](C)NC(=O)[C@H](CC(C)C)NC(=O)[C@@H](NC(=O)[C@H](CCCCN)NC(=O)[C@H](CCCNC(=N)N)NC(=O)[C@H](Cc2ccc(O)cc2)NC(=O)[C@H](CO)NC(=O)[C@H](C)NC(=O)[C@@H](NC(=O)[C@H](Cc2ccccc2)NC(=O)[C@@H](NC(=O)[C@H](C)NC(=O)[C@H](CC(=O)O)NC(=O)[C@H](C)NC(=O)[C@H](Cc2ccc(O)cc2)NC)[C@@H](C)CC)[C@@H](C)O)C(C)C)C(=O)N[C@@H](CC(C)C)C(=O)N[C@@H](CO)C(=O)N[C@@H](C)C(=O)N[C@@H](CCCNC(=N)N)C(=O)N[C@@H](CCCCN)C(=O)N[C@@H](C)C(=O)N1)[C@@H](C)CC)C(=O)N[C@@H](CO)C(=O)N[C@@H](CCCNC(=N)N)C(N)=O` [SP-28] (H-[NMeY]ADAIFTASYRKVLA[R8]LSARKA[S5]QDI[Nle]SR-NH2; staple 16-23), 1 to 10 nM.

The values above are taken from patent publication US20180371044A1, “PEPTIDOMIMETIC MACROCYCLES” (Aileron Therapeutics, Inc., priority 2015, published 2018).
